What was measured:
[1] = test system: HCT116p53– (colon carcinoma, p53 deficient); test: MTS cytotoxicity assay, HCT116p53–; format: cell-based
Method: (§1) All the titled nucleosides 14a–g were tested for their in vitro cytotoxic activity. The following cancer cell lines were used for the study: A549 (lung cancer), CCRF-CEM (acute T-lymphoblastic leukemia), HCT116 and HCT116p53^– (colon carcinoma, parental and p53 deficient), K562 (chronic myelogenous leukemia), and U2OS (bone osteosarcoma) using a colorimetric MTS assay.[25] Additionally, HeLa (cervical cancer), HepG2 (hepatocellular liver carcinoma), and HL60 (acute promyelocytic leukemia) cell lines were tested using the luminescent CellTiter-Glo assay. For comparison, nonmalignant fibroblast cell lines (BJ and MRC-5) were included in the MTS assay, whereas noncancerous human dermal fibroblasts (NHDF) were assessed with the CellTiter-Glo assay.[26] Initial screenings were done at 50 μM concentration for the MTS assay and 10 μM for the CellTiter-Glo assay.
(§2) Unless otherwise stated, all reactions were carried out under an argon atmosphere. An oil bath was used for reactions requiring heating. Thin-layer chromatography (TLC) was performed on Merck silica gel 60 F-254 aluminum sheets. Visualization was obtained by UV light (λmax = 254 or 366 nm). High-performance flash chromatography (HPFC) was conducted with a Combi Flash Rf instrument from Teledyne Isco Inc. using SiO2 (particle size 0.040–0.063 mm, 230–400 mesh) from Fluorochem in refillable flash columns or HP C18 Redi Sep Rfgold flash columns with the solvent gradient indicated in the corresponding procedures. Preparative high-pressure liquid chromatography (prep. HPLC) was performed on a Waters 2535 Quaternary Gradient System with a fraction collector. Melting points (m.p.) were measured by Bohunka Šperlichová at Charles University Prague on a Büchi Melting Point B-545 apparatus using open glass capillaries and are uncorrected. Optical rotation of final nucleosides was measured by the analytical laboratory at IOCB Prague using an AUTOPOL IV automatic polarimeter from Rudolph Research Analytical at 20 °C and 589 nm. The sample concentration c is given in g mL^–1. ^1H and ^13C{^1H} NMR spectra were measured on a Bruker Avance III 500 MHz spectrometer at 25 °C in CDCl3 referenced to the residual solvent signal (δH = 7.26 ppm, δC = 77.16 ppm), in deuterated dimethyl sulfoxide (DMSO-d6) referenced to the residual solvent signal (δH = 2.50 ppm, δC = 39.52 ppm], or in D2O with tBuOH-d10 as the external standard [δH = 1.25 ppm, δC = 31.6 ppm]. ^31P NMR NMR spectra were referenced externally to the signal of H3PO4. Coupling constants (J) are given in Hz, and the multiplets are described as s (singlet), d (doublet), t (triplet), q (quartet), m (multiplet), and b (broad). ^13C{^1H} NMR experiments were broadband proton-decoupled and were performed using APT pulse sequence. DFQ-COSY, HSQC, and HMBC experiments were used to assign the ^1H and ^13C NMR signals where required. ROESY experiments were used to confirm the relative stereochemistry of nucleosides 11 and 12. To simplify the assignment, the benzoyl group attached to the 2′-hydroxy group of the ribofuranose ring was given the letter A, the one attached to the 3′-hydroxy group is considered B, and the benzoyl group at 5′-OH is called C (Figure 3). All spectra can be found in Supporting Information S6. In the ROESY spectra for nucleosides 11, 12-β, and 12-α, the important relations for the determination of the stereochemistry are highlighted. Infrared spectra (IR) were recorded on a Bruker ALPHA FT-IR spectrometer with a single-reflection Platinum ATR module. The compounds were measured in their initial state of appearance at 20 °C, and their absorption bands were reported in wavenumbers (ṽ) in the range between 4000 and 400 cm^–1. Intensities are described as strong (s), medium (m), and weak (w). UV/vis spectra were measured on a Varian Cary 100 Bio UV–visible spectrophotometer in the range 250–800 nm using transparent 1.5 mL quartz cuvettes. Fluorescence spectra were recorded on a Fluoromax 4 spectrofluorimeter from HORIBA Scientific. […]

[2] = test system: HCT116 (colon carcinoma, parental); test: MTS cytotoxicity assay, HCT116; format: cell-based; conditions: Homo sapiens, HCT-116
Method: as §1, §2

[3] = test system: HeLa (cervical cancer); test: CellTiter-Glo cytotoxicity assay, HeLa; format: cell-based; conditions: Homo sapiens, top concentration 10 μM
Method: as §1, §2

[4] = test system: CCRF-CEM (acute T-lymphoblastic leukemia); test: MTS cytotoxicity assay, CCRF-CEM; format: cell-based; conditions: for IC50: Homo sapiens
Method: as §1, §2

[5] = test system: U2OS (bone osteosarcoma); test: MTS cytotoxicity assay, U2OS; format: cell-based; conditions: Homo sapiens
Method: as §1, §2

[6] = test system: BJ; test: MTS cytotoxicity assay, BJ fibroblasts; format: cell-based; conditions: Homo sapiens; nonmalignant fibroblasts BJ; top concentration 50 μM
Method: as §1, §2

[7] = test system: HepG2 (hepatocellular liver carcinoma); test: CellTiter-Glo cytotoxicity assay, HepG2; format: cell-based; conditions: Homo sapiens, top concentration 10 μM
Method: as §1, §2

[8] = test system: A549 (lung cancer); test: MTS cytotoxicity assay, A549; format: cell-based; conditions: Homo sapiens
Method: as §1, §2

[9] = test system: K562 (chronic myelogenous leukemia); test: MTS cytotoxicity assay, K562; format: cell-based; conditions: Homo sapiens
Method: as §1, §2

[10] = test system: cancer cell lines and nonmalignant fibroblast cell lines; test: In vitro cytotoxic activity across the whole cell line panel (MTS and CellTiter-Glo); format: cell-based; conditions: for cytotoxicity against nonmalignant cell lines BJ, MRC-5, and NHDF (in words): MRC-5, NHDF; for cytotoxic activity across tested cell lines (in words): whole panel of tested cell lines
Method: as §1, §2

[11] = test system: noncancerous human dermal fibroblasts (NHDF); test: CellTiter-Glo cytotoxicity assay, NHDF; format: cell-based; conditions: top concentration 10 μM
Method: as §1, §2

[12] = test system: HL60 (acute promyelocytic leukemia); test: CellTiter-Glo cytotoxicity assay, HL60; format: cell-based; conditions: Homo sapiens, HL-60, top concentration 10 μM
Method: as §1, §2

[13] = test system: MRC-5; test: MTS cytotoxicity assay, MRC-5 fibroblasts; format: cell-based; conditions: Homo sapiens, MRC5; nonmalignant fibroblasts MRC-5; top concentration 50 μM
Method: as §1, §2

| Compound | IC50 [1] [µM] | melting point | IC50 [2] [µM] | IC50 [3] [µM] | IC50 [4] [µM] | IC50 [5] [µM] | IC50 [6] [µM] | IC50 [7] [µM] | IC50 [8] [µM] | IC50 [9] [µM] | cytotoxicity against nonmalignant cell lines BJ, MRC-5, and NHDF (in words) [10] | cytotoxic activity across tested cell lines (in words) [10] | IC50 [11] [µM] | IC50 [12] [µM] | IC50 [13] [µM] | activity against the CCRF-CEM leukemia line (in words) [4] |
| --- | --- | --- | --- | --- | --- | --- | --- | --- | --- | --- | --- | --- | --- | --- | --- | --- |
| Nc1ncnc2c1c1c3cccnc3ccc1n2[C@@H]1O[C@H](CO)[C@@H](O)[C@H]1O [14e, 11-Amino-7-(β-D-ribofuranosyl)pyrimido[5′,4′:4,5]pyrrolo[3,2-f]quinoline] | 17.3 | 210 to 235 °C (dec.) | 18.9 | > 10 | 8.5 | 17.1 | > 50 | 8.6 | > 50 | 10 | no cytotoxicity | moderate cytotoxic activity | > 10 | 5.2 | > 50 | – |
| COc1ncnc2c1c1c3cccnc3ccc1n2[C@@H]1O[C@H](CO)[C@@H](O)[C@H]1O [14f, 11-Methoxy-7-(β-D-ribofuranosyl)pyrimido[5′,4′:4,5]pyrrolo[3,2-f]quinoline] | 23.1 | 190 to 205 °C (dec.) | 9.8 | > 10 | 8 | 17.3 | > 50 | > 10 | 27.4 | 40.2 | no cytotoxicity | moderate cytotoxic activity | > 10 | 5.2 | > 50 | – |
| CN(C)c1ncnc2c1c1c3cccnc3ccc1n2[C@@H]1O[C@H](CO)[C@@H](O)[C@H]1O [14d, 11-(N,N-Dimethylamino)-7-(β-D-ribofuranosyl)pyrimido[5′,4′:4,5]pyrrolo[3,2-f]quinoline] | > 50 | 240 °C | > 50 | > 10 | > 50 | > 50 | > 50 | > 10 | > 50 | > 50 | – | did not show any cytotoxicity whatsoever | > 10 | > 10 | > 50 | – |
| OC[C@H]1O[C@@H](n2c3ccc4ncccc4c3c3c(-c4cc5ccccc5o4)ncnc32)[C@H](O)[C@@H]1O [14b, 11-(Benzofuran-2-yl)-7-(β-D-ribofuranosyl)pyrimido[5′,4′:4,5]pyrrolo[3,2-f]quinoline] | 43.2 | 124 °C | 36 | > 10 | 18.6 | > 50 | > 50 | 2.8 | > 50 | > 50 | – | – | > 10 | > 10 | > 50 | weak activity |
| Cc1ncnc2c1c1c3cccnc3ccc1n2[C@@H]1O[C@H](CO)[C@@H](O)[C@H]1O [14c, 11-Methyl-7-(β-D-ribofuranosyl)pyrimido[5′,4′:4,5]pyrrolo[3,2-f]quinoline] | 17 | 256 °C | 17 | > 10 | 6.5 | 13.1 | > 50 | > 10 | 26.4 | 11.9 | no cytotoxicity | moderate cytotoxic activity | > 10 | 6.7 | > 50 | – |
| CSc1ncnc2c1c1c3cccnc3ccc1n2[C@@H]1O[C@H](CO)[C@@H](O)[C@H]1O [14g, 11-Methylthio-7-(β-D-ribofuranosyl)pyrimido[5′,4′:4,5]pyrrolo[3,2-f]quinoline] | 16.2 | 228 to 242 °C (dec.) | 9.3 | > 10 | 5.1 | 15 | 36.8 | > 10 | 17 | 18.6 | – | moderate cytotoxic activity | > 10 | 9.3 | 36.8 | – |
| OC[C@H]1O[C@@H](n2c3ccc4ncccc4c3c3c(-c4ccco4)ncnc32)[C@H](O)[C@@H]1O [14a, 11-(Furan-2-yl)-7-(β-D-ribofuranosyl)pyrimido[5′,4′:4,5]pyrrolo[3,2-f]quinoline] | > 50 | – | > 50 | > 10 | 38.5 | > 50 | > 50 | > 10 | > 50 | > 50 | – | – | > 10 | > 10 | > 50 | weak activity |

From article PMC11080019, “Synthesis and Biological Profiling of Quinolino-Fused 7-Deazapurine Nucleosides” (ACS Omega, 2024)
